For the data set, the target named is HSD17B13. The following applies: ASO, HepaRG.

Where “and” joins values, the source holds several entries; their conditions need not be identical. Identical values can stand only once. After the bases stand the sugars from the 5' end (letter, count) and the backbone: PS all phosphorothioate, else s phosphorothioate and o phosphodiester by linkage. Methylation of C is not given here. e = 2'-O-(2-methoxyethyl) (MOE); k = constrained ethyl (cEt); d = 2'-deoxy (DNA); m = 2'-O-methyl

For the setting “1 µM”, TCTAAATACCCTTGGT (sugars k3 d10 k3, PS) showed a target mRNA inhibition of 26%.
Sequence “TCTAAGTTAGCCCCCA (sugars kkdddddddddkekek, PS)” returned a target mRNA inhibition (1 µM) of 19%.
Under “1 µM”, TCTACACTAATATTGA (sugars k3 d10 k3, PS) registered a target mRNA inhibition of 21%.
Same read-out and setting: for TCTAGGATGATGTTCA (sugars k3 d10 k3, PS) the value was 64%; for TCTATAGCTAAGTATA (sugars k3 d10 k3, PS), 0%.
The same measure, in the same setting: the result for TCTATCAGACTTCTTA (sugars k3 d10 k3, PS) reads 49%.
For the sequence TCTCAAGGAGTACTTC (sugars k3 d10 k3, PS), the target mRNA inhibition worked out at 26% (0.02 µM); 32% (0.078 µM); 58% (0.313 µM); 80% (1 µM); 82% (1.25 µM); 91% (5 µM).
In the case of TCTCTGGGACCAAGGA (sugars k3 d10 k3, PS), the target mRNA inhibition (1 µM) turned out to be 56%.
Turning to TCTCTTGACAATGGTT (sugars k3 d10 k3, PS), the target mRNA inhibition (0.02 µM) was determined as 2%; the target mRNA inhibition (0.078 µM) came out at 14%; the target mRNA inhibition (0.313 µM) is 44%; the target mRNA inhibition (1 µM) was 70%; the target mRNA inhibition (1.25 µM) was 86%; the target mRNA inhibition (5 µM) came to 86%.
Take TCTGGGACCAAGGATA (sugars k3 d10 k3, PS): for the setting “1 µM”, the target mRNA inhibition was 30%.
For the sequence TCTTAAACCTTCCCTG (sugars k3 d10 k3, PS), the target mRNA inhibition (1 µM) amounted to 21%.
Still for that read-out and setting: the result for TCTTAAGAGAAGGTGC (sugars k3 d10 k3, PS) reads 39%; that for “TCTTAGCTGTGCACTC (sugars k3 d9 k3 e1, PS)”, 52%.
As to TCTTATGTAATAGCCA (sugars k3 d10 k3, PS), the target mRNA inhibition runs as follows: (0.02 µM) 0%; (0.078 µM) 2%; (0.313 µM) 35%; (1 µM) 77%; (1.25 µM) 74%; (5 µM) 91%.
TCTTCTCTTGGGTCCA (sugars k3 d10 k3, PS) showed a target mRNA inhibition (1 µM) of 59%.
The same measure, in the same setting: the result for TCTTGACAATGGTTGA (sugars k3 d10 k3, PS) reads 75%.
As to “TCTTGACAATGGTTGC (sugars k3 d1 m1 d8 k3, PS)”, the target mRNA inhibition (0.02 µM) was 25%; the target mRNA inhibition (0.078 µM) came to 16%; the target mRNA inhibition (0.313 µM) turned out to be 39%; the target mRNA inhibition (1 µM) turned out to be 67%; the target mRNA inhibition (1.25 µM) was 60%; the target mRNA inhibition (5 µM) amounted to 87%.
Consider “TCTTGACAATGGTTGC (sugars k3 d9 k3 e1, PS)”, for which the target mRNA inhibition came out at 0% (0.02 µM); 0% (0.078 µM); 11% (0.313 µM); 77% (1 µM); 46% (1.25 µM); 79% (5 µM).
Regarding TCTTGACAATGGTTGC (sugars k3 d10 k3, PS), for the setting “1 µM”, the target mRNA inhibition was 77%.
With “TCTTGACAATGGTTGC (sugars kkdddddddddkekek, PS)”, the target mRNA inhibition (1 µM) is 37%.
With TGAAAACTCAGCCAGC (sugars k3 d10 k3, PS), the target mRNA inhibition is 15% (0.02 µM); 33% (0.078 µM); 65% (0.313 µM); 77% (1 µM); 80% (1.25 µM); 95% (5 µM).
As for TGAAATCTTGTGTAAC (sugars k3 d10 k3, PS), the target mRNA inhibition (1 µM) was 43%.
TGAACCGTATTCCCAA (sugars k3 d10 k3, PS) registered a target mRNA inhibition (0.02 µM) of 26%; a target mRNA inhibition (0.078 µM) of 8%; a target mRNA inhibition (0.313 µM) of 59%; a target mRNA inhibition (1 µM) of 76%; a target mRNA inhibition (1.25 µM) of 81%; a target mRNA inhibition (5 µM) of 93%.
For the setting “1 µM”, TGAAGCCACTGTGACG (sugars k3 d10 k3, PS) showed a target mRNA inhibition of 49%.
In turn, TGAAGTTAGTATAGTT (sugars k3 d10 k3, PS) had a target mRNA inhibition (1 µM) of 43%.
“TGAAGTTAGTATAGTT (sugars kkdddddddddkekek, PS)” came in with a target mRNA inhibition (1 µM) of 46%.
As to “TGACAATGGTTGATAG (sugars k3 d1 m1 d8 k3, PS)”, where the note is “1 µM”, the target mRNA inhibition was found to be 42%.
TGACAATGGTTGCCAC (sugars k3 d10 k3, PS): the target mRNA inhibition (1 µM) worked out at 40%.
In the case of “TGACAATGGTTGCCAC (sugars kkdddddddddkekek, PS)”, the target mRNA inhibition (1 µM) is 38%.
In turn, TGACATAACTTCATAG (sugars k3 d10 k3, PS) showed a target mRNA inhibition (1 µM) of 51%.
Sequence TGACATAGACATGTGT (sugars k3 d10 k3, PS) yielded a target mRNA inhibition (1 µM) of 42%.
The sequence TGACTGCTGCTAGTGC (sugars k3 d10 k3, PS) gave a target mRNA inhibition (1 µM) of 50%.
Still for that read-out and setting: the result for TGAGAGTATAAATGGC (sugars k3 d10 k3, PS) reads 67%; that for TGATAAAATAGGGTGC (sugars k3 d10 k3, PS), 44%; that for TGATAATTTGGTGTCA (sugars k3 d10 k3, PS), 3%.
TGATACACCAATGCAG (sugars k3 d10 k3, PS) came in with a target mRNA inhibition (1 µM) of 44%.
Consider TGATATTCTGTGGCAT (sugars k3 d10 k3, PS), for which the target mRNA inhibition by setting is: (0.02 µM) 0%; (0.078 µM) 0%; (0.313 µM) 22%; (1 µM) 69%; (1.25 µM) 64%; (5 µM) 82%.
TGATCTCTTAGCTGTG (sugars k3 d10 k3, PS) returned a target mRNA inhibition (1 µM) of 59%.
Under “1 µM”, “TGATGTAGTGGGAGTC (sugars k3 d1 m1 d8 k3, PS)” returned a target mRNA inhibition of 43%.
Consider “TGATGTAGTGGGAGTC (sugars kkdddddddddkekek, PS)”, for which, under “1 µM”, the target mRNA inhibition turned out to be 46%.
As to TGATTGAGTTCTCCAC (sugars k3 d10 k3, PS), the target mRNA inhibition (1 µM) was found to be 48%.
Sequence TGCAAAGTTAATAGGA (sugars k3 d10 k3, PS) registered a target mRNA inhibition (1 µM) of 43%.
Take TGCAAGATTTACTTCC (sugars k3 d10 k3, PS): the target mRNA inhibition (1 µM) worked out at 45%.
On to TGCAAGTTTATCAGTA (sugars k3 d10 k3, PS), for which the target mRNA inhibition runs as follows: (0.02 µM) 28%; (0.078 µM) 32%; (0.313 µM) 62%; (1 µM) 70%; (1.25 µM) 86%; (5 µM) 92%.
Turning to TGCAGATTATTATGTG (sugars k3 d10 k3, PS), the target mRNA inhibition (1 µM) was 38%.
Still for that read-out and setting: the result for TGCATAAGAGATGAGT (sugars k3 d10 k3, PS) reads 19%; that for TGCATCTTAAGATACC (sugars k3 d10 k3, PS), 81%; that for TGCATTAATGCCACCC (sugars k3 d10 k3, PS), 22%.
Sequence TGCCAAACCAATGTTT (sugars k3 d10 k3, PS) displayed a target mRNA inhibition (1 µM) of 32%.
Sequence “TGCCAAACCAATGTTT (sugars kkdddddddddkekek, PS)” had a target mRNA inhibition (1 µM) of 61%.
Same read-out and setting: the result for TGCCAACACTAATCTC (sugars k3 d10 k3, PS) reads 30%; that for TGCCTGCTGAAACTTG (sugars k3 d10 k3, PS), 31%.
On to TGCTAAAAGCTCACCA (sugars k3 d10 k3, PS), for which, for the setting “1 µM”, the target mRNA inhibition stood at 49%.
Regarding TGCTAGTGCCAAACCA (sugars k3 d10 k3, PS), the target mRNA inhibition by setting is: (0.02 µM) 3%; (0.078 µM) 9%; (0.313 µM) 49%; (1 µM) 78%; (1.25 µM) 58%; (5 µM) 89%.
Regarding TGCTGGAACAATATGG (sugars k3 d10 k3, PS), where the note is “1 µM”, the target mRNA inhibition stood at 36%.
TGGAAACATGCTTGGC (sugars k3 d10 k3, PS) had a target mRNA inhibition (1 µM) of 62%.
TGGAAGATTAATCATA (sugars k3 d10 k3, PS) returned a target mRNA inhibition (1 µM) of 12%.
Regarding “TGGAATGCTACTTGAA (sugars k3 d9 k3 e1, PS)”, the target mRNA inhibition (1 µM) was 57%.
Turning to TGGATTACATACAAGA (sugars k3 d10 k3, PS), the target mRNA inhibition was 0% (0.02 µM); 0% (0.078 µM); 21% (0.313 µM); 68% and 50% (1 µM); 58% (1.25 µM); 87% (5 µM).
“TGGCATGGCTACAGAT (sugars k3 d1 m1 d8 k3, PS)” returned a target mRNA inhibition (1 µM) of 57%.
Take “TGGCATGGCTACAGAT (sugars k3 d9 k3 e1, PS)”: the target mRNA inhibition is, setting by setting: (0.02 µM) 26%; (0.078 µM) 22%; (0.313 µM) 39%; (1 µM) 68%; (1.25 µM) 75%; (5 µM) 70%.
TGGCATGGCTACAGAT (sugars k3 d10 k3, PS): under “1 µM”, the target mRNA inhibition amounted to 57%.
Consider TGGCTACAGATTGGAA (sugars k3 d10 k3, PS), for which the target mRNA inhibition (1 µM) came out at 55%.
Turning to “TGGGACCAAGGATATA (sugars k3 d1 m1 d8 k3, PS)”, where the note is “1 µM”, the target mRNA inhibition came to 51%.
Turning to “TGGGACCAAGGATATA (sugars k3 d9 k3 e1, PS)”, the target mRNA inhibition (1 µM) stood at 55%.
Consider TGGGACCAAGGATATA (sugars k3 d10 k3, PS), for which the target mRNA inhibition (1 µM) is 20%.
TGGGATAGTGGAGGAA (sugars k3 d10 k3, PS) came in with a target mRNA inhibition (1 µM) of 13%.
Consider “TGGTAACGGTGATCAA (sugars k3 d9 k3 e1, PS)”, for which the target mRNA inhibition (1 µM) was determined as 35%.
Still for that read-out and setting: the result for TGGTAAGGAGTAGTGG (sugars k3 d10 k3, PS) reads 34%; that for TGGTGAACCCAGTATT (sugars k3 d10 k3, PS), 0%.
Regarding TGGTTCAGTCCTTGTG (sugars k3 d10 k3, PS), under “1 µM”, the target mRNA inhibition was determined as 50%.

These data come from the OligoGym collection.
